# In patent US20130310439A1, “METHOD OF REDUCING PROTEINS MISFOLDING AND/OR AGGREGATION” (Universidade De Lisboa, priority 2010, published 2013):
# Test system: Q35 animals (C. elegans model of polyQ aggregation)
# Assay: polyQ aggregation in Q35 animals treated with cholinergic agonists
# Format: in vivo
# Conditions: one day old (L1s) Q35 animals
# Procedure: FIG. 1A: One day old (L1s) Q35 animals were treated with 25 μM levamisole or 1 mM nicotine. The white boxes indicate magnified areas shown below. The photographs are from 4 days old animals.
# FIG. 1B are bar graphs showing the number of aggregates in Q35 animals treated with nicotine, levamisole or control animals as a function of age (days).
# Additional methods are described in Garcia et al. (2007), Genes and Development 21: 3006-16.
Compound,polyQ aggregation compared to control animals (25 μM levamisole),polyQ aggregation compared to control animals (1 mM nicotine)
c1ccc([C@H]2CN3CCSC3=N2)cc1 [levamisole],increased polyQ aggregation,–
CN1CCCC1c1cccnc1 (centres unmarked) [nicotine],–,increased polyQ aggregation
